Here are results for one compound from ChEMBL document CHEMBL1147653, “Identification of type 1 inosine monophosphate dehydrogenase as an antiangiogenic drug target” (J Med Chem, 2006).

Calls of active or inactive are those of the source. The rule behind the calls is not given here.

The test system of experiment [1] is HUVEC. Put plainly: Cell cycle arrest at S phase in HUVEC at 1 uM in presence of 50 uM guanosine. The class given is functional, Homo sapiens.
Experiment [2] is filed under the species Mus musculus. Description: Inhibition of tumor-induced angiogenesis in RENCA mouse model. Format: functional, organism-based.
For experiment [3], the system named is Jurkat. Description: Antiproliferative activity against Jurkat T cells as measured by [3H]thymidine incorporation. The class given is functional, cell-based. The conditions noted are these: Homo sapiens. A general note: Incorporation of labelled thymidine or its analogues reports DNA synthesis.
Experiment [4] deals with HUVEC. Put plainly: Cell cycle arrest at G1 phase in HUVEC at 1 uM. The following applies: Homo sapiens. Format: functional.
The test system of experiment [5] is HUVEC. Description: Cell cycle arrest at G2/M phase in HUVEC at 1 uM. The class given is functional. The following applies: Homo sapiens.
Experiment [6] has as its system Mus musculus. Put plainly: Antiangiogenic activity in mouse at 60 mg/kg/day, sc. The class given is functional. The conditions noted are these: route subcutaneous.
Experiment [7] concerns HUVEC. Description: Antiproliferative activity against HUVEC as measured by [3H]thymidine incorporation. Format: functional, cell-based. The following applies: Homo sapiens.
Experiment [8] deals with HUVEC. Put plainly: Cell cycle arrest at S phase in HUVEC at 1 uM. The class given is functional. The conditions noted are these: Homo sapiens.
The subject of experiment [9] is HUVEC. Put plainly: Antiproliferative activity against HUVEC in presence of 20 uM guanine as measured by [3H]thymidine incorporation. The class given is functional, cell-based. The conditions noted are these: Homo sapiens.
Experiment [10] relates to HUVEC. Description: Cell cycle arrest at G2/M phase in HUVEC at 1 uM in presence of 50 uM guanosine. The class given is functional, Homo sapiens.
Experiment [11] relates to Jurkat. Description: Antiproliferative activity against Jurkat T cells in presence of 20 uM guanine as measured by [3H]thymidine incorporation. The class given is functional, cell-based. The conditions noted are these: Homo sapiens.
Experiment [12] has as its system HUVEC. Description: Cell cycle arrest at G1 phase in HUVEC at 1 uM in presence of 50 uM guanosine. Format: functional, Homo sapiens.

For orientation: Inhibition means the relative decrease from the control value, in per cent. A word on the inhibition: it is the percentage by which the read-out fell short of the control. Broadly, the IC50 is the concentration at which inhibition is half-maximal. Read a high IC50 as lower potency. Broadly, the inhibition in vivo is the change of the read-out against control, counted positive when it falls. A lower inhibition in vivo goes with a response near the control. Regarding `COc1c(C)c2c(c(O)c1C/C=C(\C)CCC(=O)O)C(=O)OC2` [MYCOPHENOLIC ACID], the Inhibition in experiment [1] was determined as 11.8%; in [10] it was 17%; in [12], 71%. In addition, the inhibition entry in experiment [2] was “Dose-dependent effect”. Further, the figures for the IC50 in experiment [3] and in [7] were 128 nM and 99.2 nM, respectively. Moreover, the inhibition at 1 µM in [4] was 81%; in experiment [5], 12.4%; in [8], 6.5%. Also, in [6], the inhibition in vivo at 60 mg/kg/day turned out to be 69%. In addition, the result in experiment [9] and in experiment [11] was inactive.
